Reference: paper PMC6858451, “Rhesus Theta Defensin 1 Promotes Long Term Survival in Systemic Candidiasis by Host Directed Mechanisms” (Scientific Reports, 2019)
Bridge positions count the residues as written; N and C are the ends. Peptide text beside a SMILES is read from it.

Legend:
[1] = test system: blood neutrophils, monocytes and inflammatory cytokines; test: Hematology and plasma cytokine analyses in naive and candidemic mice; assay type: in vivo
Source text: EDTA-anticoagulated blood was collected aseptically by terminal cardiac puncture and analyzed for complete blood cell count using a HemaVet 950 FS hematology analyzer (Drew Scientific). Plasma cytokine levels plasma were quantified using a mouse-specific MILLIPLEX MAP kit (Millipore) as described.

[2] = test system: host and fungal proteases; settings: cited from earlier work
[3] = cited from earlier work
[4] = candidemic mice, single 5 mg/kg i.p., 7 days p.i.
[5] = long term survivors, day 30 p.i.

With `CC[C@H](C)[C@@H]1NC(=O)[C@@H]2CSSC[C@H](NC(=O)[C@H](CCCNC(=N)N)NC(=O)[C@@H]3CSSC[C@H](NC1=O)C(=O)N[C@@H]([C@@H](C)O)C(=O)N[C@@H](CCCNC(=N)N)C(=O)NCC(=O)N[C@@H](Cc1ccccc1)C(=O)N3)C(=O)N[C@@H](CC(C)C)C(=O)N[C@H]1CSSC[C@H](NC(=O)[C@H](C(C)C)NC(=O)CNC(=O)[C@H](CCCNC(=N)N)NC(=O)[C@H](CCCNC(=N)N)NC1=O)C(=O)N[C@@H](CCCNC(=N)N)C(=O)N2` [RTD-1, Rhesus theta (θ) defensin-1] (cyclo(GFCRCLCRRGVCRCICTR); disulfide 3-16, 5-14, 7-12 (inferred); ring closure inferred) the blood neutrophil counts ([1]; candidemic mice (SC5314), single 5 mg/kg i.p. at T = 0, 4 h p.i.) was “significantly (P = 0.008) increased blood neutrophil counts”, the blood neutrophil counts ([1]; candidemic mice, single 5 mg/kg i.p. at T = 0, day 7, vs saline) was “significantly (P = 0.0002) lower” and the “IL-10 or IL-6 levels” value [1, 4] was “no effect”. The “blood proinflammatory cytokines TNF, IL-1β and IL-17” value [1, 4] was “significant reduction”, the circulating granulocytes [1, 5] was “homeostatic normalization of circulating granulocytes” and the “levels of TNF, IL-10 and IL-6” value [1, 5] was “normalized to those of uninfected controls”. The blood cytokine levels ([1]; naive mice) was “did not alter the levels of these cytokines”, the “increase of blood neutrophils” value ([1]; naive mice, single 5 mg/kg i.p., 4 h, P = 0.32) was 2.3 fold and the “stability to fungal proteases” value [2] was “highly stable”. For the same compound, the “stability to host proteases” value [2] was “highly stable” and the immunogenicity [3] was “non-immunogenic”.
